Converted amounts (≈) assume the structure as drawn. Like-named read-outs stand apart in the source and are kept apart here. Where no end group is shown, it is not given here. Some results are limits rather than exact numbers.

The subject of data set [1] is E. coli DH5α. The data set can be described thus: microbe, parasite or virus in culture. The data set is classed as cell-based, Escherichia coli. Particulars: for Relative potency of WAM1: against E. coli, WAM1 relative to the antibiotic of the line. How it is done:
(§1) Peptides were synthesized and HPLC purified (AusPep Pty Ltd). The two-stage radial diffusion assay used in this study has been described elsewhere. Briefly, ∼4×10^6 of mid-logarithmic-phase organisms were mixed into 10 ml of warm 0.8% agarose containing 0.03% (w/v) Trypticase soy broth (TSB) powder buffered with 10 mM sodium phosphate, pH 7.4. The synthetic peptides were serially diluted in 0.01% acetic acid and 5 µl peptide samples were loaded in 2.5 mm diameter wells. The plates were covered, and incubated at 37°C. After 3 hours, a 10 ml overlay gel composed of 6% TSB, 0.8% agarose in 10 mM sodium phosphate buffer (pH 7.4) was poured onto the plates. The plates were incubated overnight to allow the surviving organisms to form microcolonies. The clear zone was measured using a magnified transilluminator and expressed in units (1 mm = 10 U) after subtracting the well diameter. The MIC is defined by the χ intercept of a regression line through zone diameters obtained from a series of serially diluted peptide samples. For multidrug-resistant bacteria, MICs were measured as described by micro-broth dilution in Mueller-Hinton broth (Oxoid, Hampshire, England) according to according to Clinical and Laboratory Standards Institute (CLSI) standards. The MIC measurements were performed in duplicate and the data incorporated into a final MIC using standard methods. All the bacterial strains were tested on at least two different occasions. Mid-logarithmic phase cultures of P. aeruginosa 19056 muc were diluted in Mueller–Hinton broth to yield approximately 10^6 cfu/ml. Peptides were added at the indicated concentrations and the suspensions were then incubated for different times in a shaking water bath at 35°C. At the end of each incubation time, the samples were serially diluted in buffered saline and plated onto nutrient agar with a spiral plater (Don Whitley Scientific, Australia). Colonies were counted after 17–22 h incubation at 35°C using an automatic colony counter (Don Whitley Scientific, Australia).

For data set [2], the system named is P. aeruginosa (ATCC 27853). The data set is classed as cell-based, Pseudomonas aeruginosa. Particulars: ATCC 27853, 3 h, pH 7.4. As for the experimental part:
as §1

Data set [3] deals with B. subtilis. It is filed as cell-based, Bacillus subtilis. As for the experimental part:
as §1

Data set [4] deals with S. aureus (ATCC 25923). The data set is classed as cell-based, Staphylococcus aureus. Particulars: ATCC 25923, 3 h, pH 7.4. As for the experimental part:
as §1

The subject of data set [5] is Sal. enterica (ATCC 14028). It is filed as cell-based. How it is done: as §1
Data set [6] concerns Strep. pyogenes (ATCC 19615). The data set is classed as cell-based. How it is done: as §1
For data set [7], the system named is Strep. uberis. The data set is classed as cell-based, Streptococcus uberis. How it is done: as §1
Data set [8] has as its system C. albicans (ATCC 753). The data set is classed as cell-based, Candida albicans. As for the experimental part:
as §1

Data set [9] has as its system P. aeruginosa. The data set is classed as cell-based, Pseudomonas aeruginosa. Particulars: 3 h. As for the experimental part: as §1
Data set [10] deals with A. baumannii. The data set is classed as cell-based, Acinetobacter baumannii. Particulars: 3 h. How it is done: as §1
The test system of data set [11] is K. pneumoniae. It is filed as cell-based, Klebsiella pneumoniae. Particulars: 3 h. How it is done:
as §1

Data set [12] concerns K. pneumoniae. The data set is classed as cell-based, Klebsiella pneumoniae. Particulars: 3 h. How it is done:
Figure 3 Time course of K. pneumoniae killing by WAM1 in broth. Time marked in minutes. […] Antimicrobial assays were performed as described previously.
Peptides were synthesized and HPLC purified (AusPep Pty Ltd). The two-stage radial diffusion assay used in this study has been described elsewhere. Briefly, ∼4×10^6 of mid-logarithmic-phase organisms were mixed into 10 ml of warm 0.8% agarose containing 0.03% (w/v) Trypticase soy broth (TSB) powder buffered with 10 mM sodium phosphate, pH 7.4. The synthetic peptides were serially diluted in 0.01% acetic acid and 5 µl peptide samples were loaded in 2.5 mm diameter wells. The plates were covered, and incubated at 37°C. After 3 hours, a 10 ml overlay gel composed of 6% TSB, 0.8% agarose in 10 mM sodium phosphate buffer (pH 7.4) was poured onto the plates. The plates were incubated overnight to allow the surviving organisms to form microcolonies. The clear zone was measured using a magnified transilluminator and expressed in units (1 mm = 10 U) after subtracting the well diameter. […] For multidrug-resistant bacteria, MICs were measured as described by micro-broth dilution in Mueller-Hinton broth (Oxoid, Hampshire, England) according to according to Clinical and Laboratory Standards Institute (CLSI) standards. […] Colonies were counted after 17–22 h incubation at 35°C using an automatic colony counter (Don Whitley Scientific, Australia).
The source holds these as a separate data set.

Data set [13] relates to human red blood cells. It is filed as cell-based. As for the experimental part: Figure 4 Toxicity of WAM1 on human red blood cells. Haemolytic activity was determined by treating human red blood cells with different concentrations of WAM1 and haemoglobin release measured by absorbance at 450 nm. Samples were incubated at 37°C for 1 hour. PBS and 1% Tween-20 were used as negative and positive controls, representing 0% and 100% hemolytic activity respectively.

Where [14] appears, read: DH5α, 3 h, pH 7.4, read-out: MIC.
The mark [15] stands for this setting: Escherichia coli, Table 2, against E. coli, comparison of WAM1 with antibiotics, read-out: MIC.

On to “RRGFWKRLRRRLRRFGDRIRNRFRNFREKLPDPFPG [Ancestral WAM]”, for which the MIC in [1] (setting [14]) is on record as 0.41 µM; in data set [2], 2.06 µM; in data set [3] (3 h, pH 7.4) it was 1.56 µM; in data set [4], 1.42 µM; in [5] (ATCC 14028, 3 h, pH 7.4), 0.96 µM; in data set [6] (ATCC 19615, 3 h, pH 7.4) it was 0.68 µM. Further, the MIC came out at 0.07 µM in data set [7] (3 h, pH 7.4) and 6.45 µM in data set [8] (ATCC 753, 3 h, pH 7.4).
In the case of `CC[C@H](C)[C@H](NC(=O)[C@H](CCCCN)NC(=O)[C@H](CCC(=O)O)NC(=O)[C@H](CCCCN)NC(=O)[C@H](CO)NC(=O)[C@H](CCCCN)NC(=O)[C@H](CCCNC(=N)N)NC(=O)[C@H](Cc1ccccc1)NC(=O)[C@H](Cc1ccccc1)NC(=O)[C@H](CC(=O)O)NC(=O)CNC(=O)[C@H](CC(C)C)NC(=O)[C@@H](N)CC(C)C)C(=O)NCC(=O)N[C@@H](CCCCN)C(=O)N[C@@H](CCC(=O)O)C(=O)N[C@@H](Cc1ccccc1)C(=O)N[C@@H](CCCCN)C(=O)N[C@@H](CCCNC(=N)N)C(=O)N[C@H](C(=O)N[C@H](C(=O)N[C@@H](CCC(N)=O)C(=O)N[C@@H](CCCNC(=N)N)C(=O)N[C@H](C(=O)N[C@@H](CCCCN)C(=O)N[C@@H](CC(=O)O)C(=O)N[C@@H](Cc1ccccc1)C(=O)N[C@@H](CC(C)C)C(=O)N[C@@H](CCCNC(=N)N)C(=O)N[C@@H](CC(N)=O)C(=O)N[C@@H](CC(C)C)C(=O)N[C@H](C(=O)N1CCC[C@H]1C(=O)N[C@@H](CCCNC(=N)N)C(=O)N[C@H](C(=O)N[C@@H](CCC(=O)O)C(=O)N[C@@H](CO)C(=O)O)[C@@H](C)O)C(C)C)[C@@H](C)CC)C(C)C)[C@@H](C)CC` [LL37, reference compound], the MIC in [1] (E. coli DH5α, two-stage radial diffusion, 0.8% agarose, 0.03% TSB, 10 mM sodium phosphate pH 7.4, 37°C, MIC = x intercept of regression line of zone diameters, read-out: MIC) is reported as 5.57 µM (≈ 25 µg/mL); in data set [3] (B. subtilis, two-stage radial diffusion, 10 mM sodium phosphate pH 7.4, 37°C), 8.62 µM (≈ 38.7 µg/mL); in [5] (Sal. enterica (ATCC 14028), two-stage radial diffusion, 10 mM sodium phosphate pH 7.4, 37°C), 4.30 µM (≈ 19.3 µg/mL); in [6] (Strep. pyogenes (ATCC 19615), two-stage radial diffusion, 10 mM sodium phosphate pH 7.4, 37°C) it was more than 55 µM; in data set [7] (Strep. uberis, two-stage radial diffusion, 10 mM sodium phosphate pH 7.4, 37°C), 2.24 µM (≈ 10.1 µg/mL); in data set [8] (C. albicans (ATCC 753), two-stage radial diffusion, 10 mM sodium phosphate pH 7.4, 37°C), more than 56 µM.
Take `CC1(C)S[C@@H]2[C@H](NC(=O)[C@H](N)c3ccccc3)C(=O)N2[C@H]1C(=O)O` [Ampicillin]: the MIC in data set [1] (setting [15]) came out at 5.7 µM (≈ 1.99 µg/mL). Besides, in data set [1], the “Relative potency of WAM1” value worked out at 12 x.
As to “RTKRRIKLIKNGVKKVKDILKNNNIIILPGSNEK [PAM1]”, the MIC in data set [1] (setting [14]) was found to be 0.75 µM; in data set [2], 1.89 µM; in data set [3] (3 h, pH 7.4), 1.96 µM; in data set [4] it was 0.56 µM; in [5] (ATCC 14028, 3 h, pH 7.4) it was 0.47 µM; in [6] (ATCC 19615, 3 h, pH 7.4), 0.73 µM. In addition, the MIC is 0.25 µM in data set [7] (3 h, pH 7.4) and more than 20 µM in data set [8] (ATCC 753, 3 h, pH 7.4).
`O=C(N[C@H](CO)[C@H](O)c1ccc([N+](=O)[O-])cc1)C(Cl)Cl` [Chloramphenicol] came in with an MIC in [1] (Escherichia coli) of 12.4 µM (≈ 4.01 µg/mL). For the same compound, the “Relative potency of WAM1” value in data set [1] is on record as 26 x.
On to `CN(C)[C@@H]1C(O)=C(C(N)=O)C(=O)[C@@]2(O)C(O)=C3C(=O)c4c(O)cccc4[C@@](C)(O)[C@H]3C[C@@H]12` [Tetracycline], for which, in data set [1] (setting [15]), the MIC amounted to 4.5 µM (≈ 2 µg/mL). Further, in data set [1], the “Relative potency of WAM1” value is recorded as 10 x.
For the compound RPWAGNGSVHRYTVLSPRLKTQ [PAM2], the MIC in [1] (setting [14]) is given as 0.87 µM; in data set [2] it was 0.73 µM; in [3] (3 h, pH 7.4) it was 3.37 µM; in data set [4], 2.42 µM; in [5] (ATCC 14028, 3 h, pH 7.4) it was 1.11 µM; in data set [6] (ATCC 19615, 3 h, pH 7.4), 0.83 µM. In addition, the MIC in data set [7] (3 h, pH 7.4) is given as 0.51 µM; in data set [8] (ATCC 753, 3 h, pH 7.4) it was 2.50 µM.
On to “KRGLWESLKRKATKLGDDIRNTLRNFKIKFPVPRQG [WAM2]”, for which the MIC stood at 1.46 µM in [1] (setting [14]); 1.29 µM in data set [2]; 2.14 µM in [3] (3 h, pH 7.4); 1.39 µM in data set [4]; 1.58 µM in [5] (ATCC 14028, 3 h, pH 7.4); 0.39 µM in data set [6] (ATCC 19615, 3 h, pH 7.4). Besides, the MIC in [7] (3 h, pH 7.4) worked out at 0.63 µM; in data set [8] (ATCC 753, 3 h, pH 7.4) it was 1.47 µM.
For “KRGFGKKLRKRLKKFRNSIKKRLKNFNVVIPIPLPG [WAM1]”, the MIC in [1] (setting [14]) was 0.47 µM; in [1] (DH5α, 3 h, read-out: MIC), 0.47 µM; in data set [2] it was 0.77 µM; in data set [3] (3 h, pH 7.4), 1.50 µM; in data set [4] it was 1.01 µM; in [5] (ATCC 14028, 3 h, pH 7.4) it was 1.14 µM. Further, the MIC in [6] (ATCC 19615, 3 h, pH 7.4) is given as 0.66 µM; in data set [7] (3 h, pH 7.4), 1.22 µM; in [8] (ATCC 753, 3 h, pH 7.4) it was 1.30 µM. For the same compound, the entries for the “MIC 0 mM NaCl” value in data set [9], in data set [10] and in data set [11] were 0.9 µM, 1.9 µM and 0.5 µM, respectively. Also, the figures for the “MIC 150 mM NaCl” value in [9], in data set [10] and in [11] were 0.9 µM, 1.9 µM and 0.9 µM, respectively. Besides, the entries for the “MIC 200 mM NaCl” value in data set [9], in data set [10] and in [11] were 0.9 µM, 3.8 µM and 0.9 µM, respectively. In addition, the K. pneumoniae killed in data set [12] is recorded as 99.9%. Further, in data set [13], the “Haemolytic activity against human red blood cells” value was “not hemolytic”.

Source of the values: article PMC3166071, “Ancient Antimicrobial Peptides Kill Antibiotic-Resistant Pathogens: Australian Mammals Provide New Options” (PLoS ONE, 2011).
